The results in this text go back to paper PMC6984391, “Anion carriers as potential treatments for cystic fibrosis: transport in cystic fibrosis cells, and additivity to channel-targeting drugs” (Chemical Science, 2019).

The assay is described as follows: Cl-/NO3- exchange in LUVs with preincorporated anionophore (lucigenin method). The class given is biochemical. The conditions noted are these: transporter preincorporated in LUVs (70% POPC + 30% cholesterol), 25 mM NaCl gradient, 225 mM NaNO3; new compound or new data. The method, then: The four new anionophores were tested for affinity to Cl^– (in CHCl3 and DMSO, with tetra-alkylammonium counter-ions), and for anion transport (Cl^–/NO3^– exchange) when preloaded into 200 nm large unilamellar vesicles (LUVs). The latter assay was performed using the well-established “lucigenin method”[30] in which Cl^– influx into vesicles is followed through quenching of fluorescence from the halide-sensitive fluorophore lucigenin. The results are listed in Table 1, accompanied by corresponding values for the previously-reported compounds where available. […] In this test, anion transport by anionophores delivered externally to LUVs is compared with their action when preloaded into LUV membranes.[24],[29],[32]
3. Transport studies in vesicles
Transport measurements in vesicles with preincorporated anionophores.
1-Palmitoyl-2-oleoyl-sn-glycero-3-phosphocholine (POPC) was obtained from Avanti® Polar Lipids, Inc. An extrusion apparatus and 200 nm polycarbonate membranes were obtained from GC Technology Ltd. All lipid and receptor solutions were prepared using chloroform that had been deacidified by passage through a flash chromatography column containing basic alumina, and all aqueous solutions were prepared using deionised water that had been passed through a Millipore filtration system.
POPC and cholesterol solutions (~10 mM) in deacidified chloroform were combined with a solution of transporter in methanol or deacidified chloroform in a 5 mL round bottomed flask.
Volumes of the aliquots were calculated from the concentrations of the lipid solution to obtain a POPC to cholesterol ratio of 7:3 (for instance by combining 4.20 µmol POPC and 1.80 µmol cholesterol). The ratio of anionophore to lipid (POPC + cholesterol) was either 1:2500 or 1:25000, as specified in the experiments. The solvents from the lipid/receptor mixture were evaporated under a stream of N2 and the lipid film was dried under high vacuum for 1 h. The residue was hydrated with 500 µL of an aqueous solution of 10,10'-dimethyl-9,9'-biacridinium nitrate (lucigenin, 0.8 mM) and NaNO3 (225 mM), sonicated for 30 s and stirred for 1 h to give heterogeneous vesicles. Multilamellar vesicles were disrupted by 10 freeze-thaw cycles and then the solution was diluted to 1 mL (by adding 0.5 mL of 225 mM NaNO3) and carefully extruded (29 times) through a polycarbonate membrane (200 nm pore size) to give a uniform distribution of LUVs with an average diameter of ~200 nm.2 The external lucigenin was removed by passing the solution though a size exclusion column (containing ~2 g Sephadex 50G, eluted with 225 mM NaNO3). The collected vesicles were further diluted with NaNO3 solution (225 mM) to obtain a vesicle solution with 0.4 mM lipid concentration. 3.00 mL of this vesicle solution was placed in a quartz cuvette with a small stir bar and the fluorescence intensity (excitation at 450 nm, emission at 535 nm) was measured over time at 25 °C, using a PerkinElmer LS45 fluorescence spectrometer. 75 µL of aqueous NaCl (1.0 M in 225 mM NaNO3, to give an overall external chloride concentration of 25 mM) was added ~30 seconds after the start of the experiment and the fluorescence intensity was measured for another 14 […]
Fluorescence data were collected for at least four replicate experiments. The plateau (before addition of chloride) and the vertical drop (the first 1-2.5 seconds after chloride addition, due to quenching of external lucigenin) were removed. Next the data were normalized: all fluorescence values (F) were divided by the fluorescence value before addition of chloride (F0).
Initial rates (I) were obtained from fluorescence -decay curves (0-500 s) by fitting their inverse (F0/F) to a double exponential decay function:
Differentiating this gives F = abe−bt + cde−dt […]
and substituting t = 0 gives the following equation for initial rate: I = ab + cd Specific initial rates [I] were obtained by dividing the initial rates by the anionophore to lipid […]
Consider `COCCOCCOC(=O)[C@]12CC[C@@H](NC(=O)Nc3ccc(C(F)(F)F)cc3)C[C@@H]1C[C@@H](NC(=O)Nc1ccc(C(F)(F)F)cc1)CC2` [Compound 9], for which the “Specific initial rate [I]” value was determined as 9 s^–1.

Regarding `COCCOCCOC(=O)[C@]12CC[C@@H](NC(=O)Nc3cc(C(F)(F)F)cc(C(F)(F)F)c3)C[C@@H]1C[C@@H](NC(=O)Nc1cc(C(F)(F)F)cc(C(F)(F)F)c1)CC2` [Compound 10], the “Specific initial rate [I]” value came to 19 s^–1.

Take `CCOC(=O)[C@]12CC[C@@H](NC(=S)Nc3ccc([N+](=O)[O-])cc3)C[C@@H]1C[C@@H](NC(=S)Nc1ccc([N+](=O)[O-])cc1)CC2` [Compound 12]: the “Specific initial rate [I]” value came to 310 s^–1.

`CCCCCCCCOC(=O)[C@]12CC[C@@H](NC(=S)Nc3ccc([N+](=O)[O-])cc3)C[C@@H]1C[C@@H](NC(=S)Nc1ccc([N+](=O)[O-])cc1)CC2` [Compound 13]: the “Specific initial rate [I]” value was determined as 370 s^–1.

On to `FC(F)(F)c1ccc(NC(=S)NCCN(CCNC(=S)Nc2ccc(C(F)(F)F)cc2)CCNC(=S)Nc2ccc(C(F)(F)F)cc2)cc1` [Compound 18], for which the “Specific initial rate [I]” value is 36 ^b s^–1.

For the molecule `FC(F)(F)c1cc(NC(=S)NCCN(CCNC(=S)Nc2cc(C(F)(F)F)cc(C(F)(F)F)c2)CCNC(=S)Nc2cc(C(F)(F)F)cc(C(F)(F)F)c2)cc(C(F)(F)F)c1` [Compound 19], the “Specific initial rate [I]” value is listed as 590 ^b s^–1.
